The target in data set [1] is T1, full-length beta-Catenin (Uniprot ID P35222) (Homo sapiens, UniProt P35222).
T1 construct: 10 nM full-length beta-Catenin (Uniprot ID P35222)
T1 sequence (P35222 1-781): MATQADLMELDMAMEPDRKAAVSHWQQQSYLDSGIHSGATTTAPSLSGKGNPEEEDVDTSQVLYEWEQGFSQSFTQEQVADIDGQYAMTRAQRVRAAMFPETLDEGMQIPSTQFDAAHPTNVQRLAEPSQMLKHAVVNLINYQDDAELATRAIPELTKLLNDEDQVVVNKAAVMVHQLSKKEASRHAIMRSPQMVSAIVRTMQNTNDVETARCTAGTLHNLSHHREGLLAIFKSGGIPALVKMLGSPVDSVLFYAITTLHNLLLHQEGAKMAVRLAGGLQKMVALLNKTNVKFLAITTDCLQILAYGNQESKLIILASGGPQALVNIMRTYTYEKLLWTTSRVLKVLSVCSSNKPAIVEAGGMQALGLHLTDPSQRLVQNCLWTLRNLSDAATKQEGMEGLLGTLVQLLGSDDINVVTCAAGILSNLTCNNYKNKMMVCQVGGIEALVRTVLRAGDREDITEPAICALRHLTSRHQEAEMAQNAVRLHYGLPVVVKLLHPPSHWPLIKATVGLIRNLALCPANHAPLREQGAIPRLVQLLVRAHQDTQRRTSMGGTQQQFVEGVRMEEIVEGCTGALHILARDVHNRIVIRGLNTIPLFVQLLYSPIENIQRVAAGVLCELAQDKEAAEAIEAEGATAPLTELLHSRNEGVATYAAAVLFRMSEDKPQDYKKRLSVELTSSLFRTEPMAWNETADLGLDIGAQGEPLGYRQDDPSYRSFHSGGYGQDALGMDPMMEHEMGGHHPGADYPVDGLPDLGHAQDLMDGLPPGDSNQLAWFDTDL
Description: Fluorescence polarization IC50 (beta-catenin / 5FAM-TCF4 10-53 competition). It is filed as binding. Background: Polarisation of emitted light reports the rotation of a fluorescent probe.

A short description of a further data set: CHI Log D procedure. It counts as physicochemical. The conditions noted are these: for CHI Log D: pH 7.4.
The nature of a further data set: Solubility in PBS. It counts as physicochemical. In outline:
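The PBS solution was ultracentrifuged and the supernatant analyzed by HPLC. Its peak area was divided by that of a 50 μM peptide DMSO reference injection and multiplied by 50 uM to give solubility.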

The mark [2] stands for this setting: fluorescence polarization, read-out: beta-Catenin FP IC50.

Results on ten molecules are retold here after patent US20240116985A1, “STAPLED PEPTIDES AND METHODS THEREOF” (priority 2020, published 2024).

Each structure is given as a SMILES string. Values after ≈ are worked out from the molar mass of the structure shown. Where two headings read alike, the source gives them in different places.

As usually defined, the Solubility is the dissolved amount per volume that the medium holds. On to `CC[C@H](C)[C@@H]1NC(=O)[C@H](CC(=O)O)NC(=O)[C@]2(CC=CCCCC3(CCCC=CCCCCCC[C@@](C)(C(=O)N[C@@H](Cc4ccccc4)C(=O)N[C@@H](Cc4csc5ccccc45)C(=O)N[C@H](C(N)=O)C(C)C)NC(=O)[C@H](CCC(N)=O)NC(=O)[C@H](Cc4ccccc4)NC(=O)[C@H](C)NC(=O)[C@H](C)NC(=O)[C@H](CCC(=O)O)NC(=O)[C@H](CC(=O)O)NC3=O)NC1=O)CCCN2C(C)=O` (stereo partly drawn) [I-645, Ac-PL3-Asp-Ile-B5-Asp-Glu-Ala-Ala-Phe-Gln-S8-Phe-BztA-Val-NH2], for which the IC50 in data set [1] (setting [2]) and in data set [1] (read-out: FP EC50) was 395 nM throughout. Besides, in “CHI Log D procedure”, the “CHI Log D” value amounted to 2.677. The “Solubility” value in the data set “Solubility in PBS” is 40 µM (≈ 74.2 µg/mL).

As for `CC[C@H](C)[C@@H]1NC(=O)[C@H](CC(=O)O)NC(=O)[C@]2(CC=CCCCC3(CCCC=CCCCCCC[C@@](C)(C(=O)N[C@@H](Cc4ccccc4)C(=O)N[C@@H](Cc4csc5ccccc45)C(=O)N[C@H](C(N)=O)C(C)C)NC(=O)[C@H](CCC(N)=O)NC(=O)[C@H](Cc4ccccc4)NC(=O)[C@H](C)NC(=O)[C@H](C)NC(=O)[C@H](CCC(=O)O)NC(=O)[C@H](CC(=O)O)NC3=O)NC1=O)CCCN2C(C)=O` (stereo partly drawn) [I-646, Ac-PL3-Asp-Ile-B5-Asp-Glu-Ala-Ala-Phe-Gln-S8-Phe-BztA-Val-NH2], the IC50 in data set [1] (setting [2]) and in data set [1] (read-out: FP EC50) was 461 nM in each case. The “CHI Log D” value in “CHI Log D procedure” worked out at 2.694. For the same molecule, the “Solubility” value in “Solubility in PBS” stood at 41 µM (≈ 76 µg/mL).

Turning to `CC[C@H](C)[C@@H]1NC(=O)[C@H](CC(=O)O)NC(=O)[C@]2(CC=CCCCC3(CCCC=CCCCCCC[C@@](C)(C(=O)N[C@@H](Cc4ccccc4)C(=O)N[C@@H](Cc4csc5ccccc45)C(=O)N[C@@H](CCC(N)=O)C(N)=O)NC(=O)[C@H](CCC(N)=O)NC(=O)[C@H](Cc4ccccc4)NC(=O)[C@H](C)NC(=O)[C@H](CC(C)C)NC(=O)[C@H](CCC(=O)O)NC(=O)[C@H](CC(=O)O)NC3=O)NC1=O)CCCN2C(C)=O` (stereo partly drawn) [I-647, Ac-PL3-Asp-Ile-B5-Asp-Glu-Leu-Ala-Phe-Gln-S8-Phe-BztA-Gln-NH2], the IC50 in data set [1] (setting [2]) and in data set [1] (read-out: FP EC50) was 445 nM throughout. Moreover, the “CHI Log D” value in “CHI Log D procedure” was determined as 2.677. Further, the “Solubility” value in the data set “Solubility in PBS” turned out to be 50 µM (≈ 96.3 µg/mL).

As to `CC[C@H](C)[C@@H]1NC(=O)[C@H](CC(=O)O)NC(=O)[C@]2(CC=CCCCC3(CCCC=CCCCCCC[C@@](C)(C(=O)N[C@@H](Cc4ccccc4)C(=O)N[C@@H](Cc4csc5ccccc45)C(=O)N[C@@H](CCC(N)=O)C(N)=O)NC(=O)[C@H](CCC(N)=O)NC(=O)[C@H](Cc4ccccc4)NC(=O)[C@H](C)NC(=O)[C@H](CC(C)C)NC(=O)[C@H](CCC(=O)O)NC(=O)[C@H](CC(=O)O)NC3=O)NC1=O)CCCN2C(C)=O` (stereo partly drawn) [I-648, Ac-PL3-Asp-Ile-B5-Asp-Glu-Leu-Ala-Phe-Gln-S8-Phe-BztA-Gln-NH2], the IC50 in data set [1] (setting [2]) and in data set [1] (read-out: FP EC50) was 233 nM in each case. For the same molecule, in the data set “CHI Log D procedure”, the “CHI Log D” value is 2.721. Further, in “Solubility in PBS”, the “Solubility” value stood at 46 µM (≈ 88.6 µg/mL).

Turning to `CC[C@H](C)[C@@H]1NC(=O)[C@H](CC(=O)O)NC(=O)[C@]2(CC=CCCCC3(CCCC=CCCCCCC[C@@](C)(C(=O)N[C@@H](Cc4ccccc4)C(=O)N[C@@H](Cc4csc5ccccc45)C(=O)N[C@@H](CCC(N)=O)C(N)=O)NC(=O)[C@H](CCC(N)=O)NC(=O)[C@H](Cc4ccccc4)NC(=O)[C@H](C)NC(=O)[C@H](Cc4ccccc4)NC(=O)[C@H](CCC(=O)O)NC(=O)[C@H](CC(=O)O)NC3=O)NC1=O)CCCN2C(C)=O` (stereo partly drawn) [I-649, Ac-PL3-Asp-Ile-B5-Asp-Glu-Phe-Ala-Phe-Gln-S8-Phe-BztA-Gln-NH2], the IC50 in data set [1] (setting [2]) and in data set [1] (read-out: FP EC50) was 209 nM each time. Besides, the “CHI Log D” value in the data set “CHI Log D procedure” is listed as 2.677. Besides, the “Solubility” value in “Solubility in PBS” was found to be 41 µM (≈ 80.3 µg/mL).

Regarding `CC[C@H](C)[C@@H]1NC(=O)[C@H](CC(=O)O)NC(=O)[C@]2(CC=CCCCC3(CCCC=CCCCCCC[C@@](C)(C(=O)N[C@@H](Cc4ccccc4)C(=O)N[C@@H](Cc4csc5ccccc45)C(=O)N[C@@H](CCC(N)=O)C(N)=O)NC(=O)[C@H](CCC(N)=O)NC(=O)[C@H](Cc4ccccc4)NC(=O)[C@H](C)NC(=O)[C@H](Cc4ccccc4)NC(=O)[C@H](CCC(=O)O)NC(=O)[C@H](CC(=O)O)NC3=O)NC1=O)CCCN2C(C)=O` (stereo partly drawn) [I-650, Ac-PL3-Asp-Ile-B5-Asp-Glu-Phe-Ala-Phe-Gln-S8-Phe-BztA-Gln-NH2], the IC50 in data set [1] (setting [2]) and in data set [1] (read-out: FP EC50) was 137 nM each time. The “CHI Log D” value in “CHI Log D procedure” is reported as 2.718. In addition, the “Solubility” value in the data set “Solubility in PBS” stood at 45 µM (≈ 88.2 µg/mL).

For `CC[C@H](C)[C@@H]1NC(=O)[C@H](CC(=O)O)NC(=O)[C@]2(CC=CCCCC3(CCCC=CCCCCCC[C@@](C)(C(=O)N[C@@H](Cc4ccccc4)C(=O)N[C@@H](Cc4csc5ccccc45)C(=O)N[C@@H](CCC(N)=O)C(N)=O)NC(=O)[C@H](CCC(N)=O)NC(=O)[C@H](Cc4ccccc4)NC(=O)[C@H](C)NC(=O)[C@H](CO)NC(=O)[C@H](CCC(=O)O)NC(=O)[C@H](CC(=O)O)NC3=O)NC1=O)CCCN2C(C)=O` (stereo partly drawn) [I-651, Ac-PL3-Asp-Ile-B5-Asp-Glu-Ser-Ala-Phe-Gln-S8-Phe-BztA-Gln-NH2], the IC50 in data set [1] (setting [2]) and in data set [1] (read-out: FP EC50) was 186 nM each time. Also, the “CHI Log D” value in “CHI Log D procedure” is 2.167. In addition, in “Solubility in PBS”, the “Solubility” value turned out to be 48 µM (≈ 91.2 µg/mL).

Take `CC[C@H](C)[C@@H]1NC(=O)[C@H](CC(=O)O)NC(=O)[C@]2(CC=CCCCC3(CCCC=CCCCCCC[C@@](C)(C(=O)N[C@@H](Cc4ccccc4)C(=O)N[C@@H](Cc4csc5ccccc45)C(=O)N[C@@H](CCC(N)=O)C(N)=O)NC(=O)[C@H](CCC(N)=O)NC(=O)[C@H](Cc4ccccc4)NC(=O)[C@H](C)NC(=O)[C@H](CO)NC(=O)[C@H](CCC(=O)O)NC(=O)[C@H](CC(=O)O)NC3=O)NC1=O)CCCN2C(C)=O` (stereo partly drawn) [I-652, Ac-PL3-Asp-Ile-B5-Asp-Glu-Ser-Ala-Phe-Gln-S8-Phe-BztA-Gln-NH2]: the IC50 in data set [1] (setting [2]) and in data set [1] (read-out: FP EC50) was 72 nM each time. Besides, the “CHI Log D” value in “CHI Log D procedure” is on record as 2.233. The “Solubility” value in the data set “Solubility in PBS” is 48 µM (≈ 91.2 µg/mL).

As for `CC[C@H](C)[C@@H]1NC(=O)[C@H](CC(=O)O)NC(=O)[C@]2(CC=CCCCC3(CCCC=CCCCCCC[C@@](C)(C(=O)N[C@@H](Cc4ccccc4)C(=O)N[C@@H](Cc4csc5ccccc45)C(=O)N[C@@H](CCC(N)=O)C(N)=O)NC(=O)[C@H](CCC(N)=O)NC(=O)[C@H](Cc4ccccc4)NC(=O)[C@H](C)NC(=O)[C@H](CCC(N)=O)NC(=O)[C@H](CCC(=O)O)NC(=O)[C@H](CC(=O)O)NC3=O)NC1=O)CCCN2C(C)=O` (stereo partly drawn) [I-653, Ac-PL3-Asp-Ile-B5-Asp-Glu-Gln-Ala-Phe-Gln-S8-Phe-BztA-Gln-NH2], the IC50 in data set [1] (setting [2]) and in data set [1] (read-out: FP EC50) was 108 nM throughout. For the same molecule, the “CHI Log D” value in the data set “CHI Log D procedure” stood at 2.07. The “Solubility” value in the data set “Solubility in PBS” was determined as 39 µM (≈ 75.7 µg/mL).

The term chromatographic logD denotes lipophilicity estimated from chromatographic retention. As to `CC[C@H](C)[C@@H]1NC(=O)[C@H](CC(=O)O)NC(=O)[C@]2(CC=CCCCC3(CCCC=CCCCCCC[C@@](C)(C(=O)N[C@@H](Cc4ccccc4)C(=O)N[C@@H](Cc4csc5ccccc45)C(=O)N[C@@H](CCC(N)=O)C(N)=O)NC(=O)[C@H](CCC(N)=O)NC(=O)[C@H](Cc4ccccc4)NC(=O)[C@H](C)NC(=O)[C@H](Cc4c[nH]c5ccccc45)NC(=O)[C@H](CCC(=O)O)NC(=O)[C@H](CC(=O)O)NC3=O)NC1=O)CCCN2C(C)=O` (stereo partly drawn) [I-655, Ac-PL3-Asp-Ile-B5-Asp-Glu-Trp-Ala-Phe-Gln-S8-Phe-BztA-Gln-NH2], the IC50 in data set [1] (setting [2]) was 183 nM. In “CHI Log D procedure” (pH 7.4, CHI Log D), the chromatographic logD was 2.69. Also, the Solubility in “Solubility in PBS” (Solubility (uM)) is 46 µM (≈ 91.9 µg/mL).
